In brackets after ≈: the same amount, converted by molar mass. Where two headings read alike, the source gives them in different places.
Key:
Staphylococcus aureus = experiment: MIC (Minimal Inhibition Concentration) test on bacterial colonies; type: cell-based; settings: read-out: MIC (Minimal Inhibition Concentration)
Procedure: (§1) With the purpose of evaluating the bacteriostatic activity of the bacteriostats of the invention, the following MIC (Minimal Inhibition Concentration) tests were carried out on bacterial colonies of “Pseudomonas aeruginosa” (Pa) and of “Staphylococcus aureus” (Sa), respectively with pure phenoxyethanol of formula (IV) and with phenoxyethanol ester of PCA of formula (V) of the invention.

Pseudomonas aeruginosa = experiment: as above; type: cell-based; settings: read-out: MIC (Minimal Inhibition Concentration)
Procedure: as §1

skin = experiment: Patch test (finn chamber) for skin compatibility: primary irritation and allergic response; type: in vivo, human; settings: 25 healthy volunteers; about 20 μg solid product on the back, finn chamber 48 hours; read 15 mins, 1 hr and 24 hrs after removal
Procedure: The skin compatibility of the bacteriostat according to the invention, in terms of anergic response and of primary Irritation. was tested with the following patch tests.
A panel of 25 healthy volunteers was subjected to the application onto the back of about 20 μg of solid product with the use of a “finn chamber” (patch test). After 48 hours the “finn chamber” was removed and the skin reactions after 15 mins, 1 hr and 24 hrs from removal were clinically evaluated.

Compound	MIC (Staphylococcus aureus; Staphylococcus aureus (Sa))	MIC (Pseudomonas aeruginosa; Pseudomonas aeruginosa (Pa))	skin irritation (primary irritation) in patch test (skin)	skin sensitization in patch test (skin)	MIC (Staphylococcus aureus; Staphylococcus aureus)	MIC (Pseudomonas aeruginosa; Pseudomonas aeruginosa)
O=C1CCC(C(=O)OCCOc2ccccc2)N1 (stereo not shown) [PCA Ester, phenoxyethanol ester of PCA]	1000 µg/mL (≈ 4.01 mM)	1000 µg/mL (≈ 4.01 mM)	not to be irritating	did not sensitize the skin	–	–
OCCOc1ccccc1 [phenoxyethanol, 2-phenoxyethanol, reference compound]	–	–	moderately irritating	–	6400 µg/mL (≈ 46.3 mM)	3200 µg/mL (≈ 23.2 mM)
